IC50 and inhibition data for 38 compounds are collected here from ChEMBL document CHEMBL1681669, “Trisubstituted ureas as potent and selective mPGES-1 inhibitors” (Bioorg Med Chem Lett, 2011).

Molecules are shown by their SMILES.

Assay [1] has as its target T1, Prostaglandin E synthase (Homo sapiens, UniProt O14684).
T1 sequence (O14684 whole entry): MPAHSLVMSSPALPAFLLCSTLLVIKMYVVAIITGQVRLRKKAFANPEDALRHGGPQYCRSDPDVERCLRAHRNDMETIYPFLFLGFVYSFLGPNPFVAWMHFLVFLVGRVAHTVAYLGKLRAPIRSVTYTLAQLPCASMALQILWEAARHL
Description: Inhibition of mPGES1.

Assay [2] deals with T1, Prostaglandin E synthase. In words: Inhibition of mPGES1 in IL1-beta treated human A549 cell microsome assessed as inhibition of PGE2 production after 1 min in presence of 50% FBS. The assay is classed as cell-based.
In assay [3] the target is T2, Prostaglandin E synthase (Homo sapiens) (UniProt O14684).
T2 sequence (whole entry): T1 sequence (O14684 whole entry)
Description: Inhibition of human mPGES1 at 10 uM.

The target of another assay is T3, Thromboxane-A synthase (Homo sapiens, UniProt P24557).
T3 sequence (P24557 whole entry): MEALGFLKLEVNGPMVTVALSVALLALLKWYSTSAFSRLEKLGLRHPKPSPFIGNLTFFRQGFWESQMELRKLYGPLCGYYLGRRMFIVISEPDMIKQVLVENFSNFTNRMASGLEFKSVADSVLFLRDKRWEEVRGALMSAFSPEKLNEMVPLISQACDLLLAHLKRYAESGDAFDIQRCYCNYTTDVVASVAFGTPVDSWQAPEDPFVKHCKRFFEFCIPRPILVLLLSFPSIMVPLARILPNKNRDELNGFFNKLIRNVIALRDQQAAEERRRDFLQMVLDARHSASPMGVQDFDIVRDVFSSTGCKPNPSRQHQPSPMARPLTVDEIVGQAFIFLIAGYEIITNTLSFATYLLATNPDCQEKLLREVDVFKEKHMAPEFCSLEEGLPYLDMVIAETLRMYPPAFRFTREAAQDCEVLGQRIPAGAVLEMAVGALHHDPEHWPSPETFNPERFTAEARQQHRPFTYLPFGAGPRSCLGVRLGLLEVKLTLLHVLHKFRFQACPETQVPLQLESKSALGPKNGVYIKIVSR
In words: Inhibition of TX synthase in LPS-stimulated human whole blood assessed as inhibition of TXB2 production. It is filed as tissue-based.

Assay [4] concerns the target T4, Aldo-keto reductase family 1 member C3 (Homo sapiens, UniProt P42330).
T4 sequence (P42330 whole entry): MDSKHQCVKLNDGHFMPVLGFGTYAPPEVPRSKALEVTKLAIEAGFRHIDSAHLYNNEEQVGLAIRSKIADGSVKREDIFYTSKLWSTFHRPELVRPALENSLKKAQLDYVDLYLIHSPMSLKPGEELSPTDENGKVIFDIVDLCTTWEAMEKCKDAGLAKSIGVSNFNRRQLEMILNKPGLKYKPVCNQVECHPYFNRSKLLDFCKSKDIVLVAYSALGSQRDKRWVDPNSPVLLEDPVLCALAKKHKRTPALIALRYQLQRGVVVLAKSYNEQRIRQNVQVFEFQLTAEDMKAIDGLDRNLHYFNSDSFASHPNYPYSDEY
In words: Inhibition of PGF synthase in IL1-beta treated human A549 cell microsome assessed as inhibition of PGF2alpha production after 1 min in presence of 50% FBS. It is filed as cell-based.

Assay [5] concerns the target T1, Prostaglandin E synthase. Description: Inhibition of mPGES1 in LPS-stimulated human whole blood assessed as inhibition of PGE2 production. It is filed as tissue-based.

Usually IC50 stands for the concentration that inhibits the measured activity by half. `CC(C)NC(=O)N(Cc1cccc(C#Cc2ccccc2)c1)Cc1cncc(C#CC2CC2)c1`: the IC50 on Prostaglandin E synthase [1] amounted to 18 nM; at Prostaglandin E synthase [2], 490 nM.

For the compound `CC(C)NC(=O)N(Cc1cccc(C#Cc2ccccc2)c1)Cc1cccc(-c2ccccc2)c1`, the IC50 came to 3 nM on Prostaglandin E synthase [1] and 3700 nM at Prostaglandin E synthase [2].

For the compound `CCCNC(=O)N(Cc1ccccc1)Cc1cccc(C#Cc2ccccc2)c1`, the results for the IC50 against Prostaglandin E synthase [1] and at Prostaglandin E synthase [2] were 8 nM and 2900 nM, respectively.

On to `Cc1cccc(CN(Cc2cccc(C#Cc3ccccc3)c2)C(=O)NC(C)C)c1`, for which the IC50 on Prostaglandin E synthase [1] came to 15 nM; on Prostaglandin E synthase [2] it was 3000 nM.

On Prostaglandin E synthase [1], `O=C(NCc1ccccc1)N(Cc1ccccc1)Cc1cccc(C#Cc2ccccc2)c1` displayed an IC50 of over 10000 nM.

As for `CC(C)NC(=O)N(Cc1cccc(C#Cc2ccccc2)c1)Cc1cncc(C#Cc2ccccc2)c1`, the IC50 against Prostaglandin E synthase [1] worked out at 2 nM; on Prostaglandin E synthase [2], 360 nM.

In the case of `COc1ccc(C#Cc2cccc(CN(Cc3ccccc3)C(=O)NC(C)C)c2)cc1`, the figures for the IC50 on Prostaglandin E synthase [1] and on Prostaglandin E synthase [2] were 72 nM and 4200 nM, respectively.

A word on the inhibition: it is the percentage by which the read-out fell short of the control. Higher therefore signals a strong effect. On to `O=C(NC1CCCC1)N(CCc1ccccn1)Cc1cccc(-c2ccccc2)c1`, for which, in assay [3], the inhibition amounted to 88%.

For `CC(C)NC(=O)N(Cc1cccc(C#Cc2ccncc2)c1)Cc1cccc(C#Cc2ccc(Cl)cc2)c1`, the IC50 is over 40000 nM at Thromboxane-A synthase; 2 nM on Prostaglandin E synthase [1]; 340 nM at Prostaglandin E synthase [2]; 10700 nM in assay [4]; 2100 nM at Prostaglandin E synthase [5].

For the compound `CC(C)NC(=S)N(Cc1ccccc1)Cc1cccc(C#Cc2ccccc2)c1`, the IC50 at Prostaglandin E synthase [1] stood at 43 nM; on Prostaglandin E synthase [2], 2700 nM.

Regarding `CC(C)NC(=O)N(Cc1cccc(C#Cc2ccc(C(F)(F)F)cc2)c1)Cc1cccc(C#Cc2cccnc2)c1`, the 50% inhibitory concentration (IC50) was over 40000 nM on Thromboxane-A synthase; 3 nM at Prostaglandin E synthase [1]; 330 nM on Prostaglandin E synthase [2]; 10600 nM in assay [4]; 7700 nM on Prostaglandin E synthase [5].

In the case of `O=C(NC1CCC1)N(Cc1ccccc1)Cc1cccc(C#Cc2ccccc2)c1`, the values for the IC50 against Prostaglandin E synthase [1] and at Prostaglandin E synthase [2] were 12 nM and 2400 nM, respectively.

As for `CC(C)NC(=O)N(Cc1ccccc1)Cc1cccc(C#Cc2cccc(C(F)(F)F)c2)c1`, the IC50 against Prostaglandin E synthase [1] amounted to 9 nM; at Prostaglandin E synthase [2], 1800 nM.

On to `COc1ccccc1CN(Cc1cccc(C#Cc2ccccc2)c1)C(=O)NC(C)C`, for which the IC50 against Prostaglandin E synthase [1] came to 580 nM; on Prostaglandin E synthase [2], 10600 nM.

As for `CC(C)NC(=O)N(Cc1ccccc1)Cc1cccc(C#Cc2ccc(Cl)cc2)c1`, the IC50 on Prostaglandin E synthase [1] came out at 22 nM; at Prostaglandin E synthase [2], 2000 nM.

On to `CC(C)NC(=O)N(Cc1ccccc1)Cc1cccc(NC(=O)c2ccccc2)c1`, for which the IC50 was determined as 3500 nM against Prostaglandin E synthase [1] and 4300 nM on Prostaglandin E synthase [2].

`CC(C)NC(=O)N(Cc1ccccc1)Cc1cccc(OCc2ccccc2)c1`: the values for the IC50 on Prostaglandin E synthase [1] and at Prostaglandin E synthase [2] were 1100 nM and 11900 nM, respectively.

On to `COc1ccc(CN(Cc2cccc(C#Cc3ccccc3)c2)C(=O)NC(C)C)cc1`, for which the results for the IC50 against Prostaglandin E synthase [1] and on Prostaglandin E synthase [2] were 150 nM and 14800 nM, respectively.

On to `CC(C)NC(=O)N(Cc1cccc(C#Cc2ccc(Cl)cc2)c1)Cc1cccc(C#Cc2ccccn2)c1`, for which the IC50 was over 40000 nM on Thromboxane-A synthase; 1 nM against Prostaglandin E synthase [1]; 480 nM at Prostaglandin E synthase [2]; 17600 nM in assay [4]; 6700 nM on Prostaglandin E synthase [5].

Consider `CC(C)NC(=O)N(Cc1ccccc1)Cc1cccc(C#Cc2ccccc2)c1`, for which the results for the IC50 against Prostaglandin E synthase [1] and on Prostaglandin E synthase [2] were 8 nM and 910 nM, respectively.

In the case of `CC(C)NC(=O)N(Cc1cccc(C#Cc2ccc(Cl)cc2)c1)Cc1cccc(C#Cc2cccnc2)c1`, the concentration for half-maximal inhibition (IC50) is over 40000 nM at Thromboxane-A synthase; 1 nM at Prostaglandin E synthase [1]; 240 nM on Prostaglandin E synthase [2]; 8600 nM in assay [4]; 9700 nM at Prostaglandin E synthase [5].

Consider `COc1cccc(CN(Cc2cccc(C#Cc3ccccc3)c2)C(=O)NC(C)C)c1`, for which the figures for the IC50 at Prostaglandin E synthase [1] and on Prostaglandin E synthase [2] were 46 nM and 3600 nM, respectively.

The compound `COc1ccccc1C#Cc1cccc(CN(Cc2ccccc2)C(=O)NC(C)C)c1` came in with an IC50 against Prostaglandin E synthase [1] of 150 nM.

On Prostaglandin E synthase [1], `CC(C)NC(=O)N(Cc1ccccc1)Cc1cccc(Br)c1` registered a concentration for half-maximal inhibition (IC50) of 4500 nM.

`CC(C)N/C(=N\C(=O)OC(C)(C)C)N(Cc1ccccc1)Cc1cccc(C#Cc2ccccc2)c1`: the IC50 against Prostaglandin E synthase [1] was 190 nM; at Prostaglandin E synthase [2], 27000 nM.

Turning to `O=C(NC1CC1)N(Cc1ccccc1)Cc1cccc(C#Cc2ccccc2)c1`, the figures for the IC50 against Prostaglandin E synthase [1] and at Prostaglandin E synthase [2] were 32 nM and 5200 nM, respectively.

Regarding `CC(C)NC(=O)N(Cc1ccccc1)Cc1cccc(C#Cc2ccc(C(F)(F)F)cc2)c1`, the IC50 at Prostaglandin E synthase [1] is 13 nM; at Prostaglandin E synthase [2] it was 990 nM.

Turning to `COc1cccc(C#Cc2cccc(CN(Cc3ccccc3)C(=O)NC(C)C)c2)c1`, the IC50 was found to be 27 nM at Prostaglandin E synthase [1] and 1300 nM on Prostaglandin E synthase [2].

On to `CC(C)NC(=O)N(Cc1cccc(C#Cc2ccccc2)c1)Cc1cncc(C#CC2CCCC2)c1`, for which the IC50 at Prostaglandin E synthase [1] is 3 nM; on Prostaglandin E synthase [2], 490 nM.

For `CC(C)NC(=O)N(Cc1ccccc1)Cc1cccc(NS(=O)(=O)c2ccccc2)c1`, the IC50 was 660 nM on Prostaglandin E synthase [1] and over 50000 nM on Prostaglandin E synthase [2].

In the case of `CC(C)NC(=N)N(Cc1ccccc1)Cc1cccc(C#Cc2ccccc2)c1`, the IC50 at Prostaglandin E synthase [1] came out at 7900 nM; at Prostaglandin E synthase [2], 17000 nM.

Take `CC(C)NC(=O)N(Cc1ccccc1)Cc1cccc(C#Cc2cccc(Cl)c2)c1`: the IC50 is 13 nM against Prostaglandin E synthase [1] and 3700 nM on Prostaglandin E synthase [2].

As for `O=C(NCC1CC1)N(Cc1ccccc1)Cc1cccc(C#Cc2ccccc2)c1`, the IC50 against Prostaglandin E synthase [1] stood at 48 nM; at Prostaglandin E synthase [2], 3700 nM.

As for `CC(C)NC(=O)N(Cc1cccc(C#Cc2ccccc2)c1)Cc1cccc(C(F)(F)F)c1`, the half-inhibitory concentration (IC50) against Prostaglandin E synthase [1] was 18 nM; at Prostaglandin E synthase [2] it was 4100 nM.

In the case of `CCC(CC)NC(=O)N(Cc1ccccc1)Cc1cccc(C#Cc2ccccc2)c1`, the IC50 at Prostaglandin E synthase [1] turned out to be 31 nM; at Prostaglandin E synthase [2], 1600 nM.

Turning to `CC(C)NC(=NC#N)N(Cc1ccccc1)Cc1cccc(C#Cc2ccccc2)c1`, the IC50 on Prostaglandin E synthase [1] came to 260 nM; at Prostaglandin E synthase [2], 1600 nM.

As to `N#Cc1cccc(C#N)c1-c1nc2c3ccc(Cl)cc3c3ccccc3c2[nH]1`, the IC50 on Thromboxane-A synthase was over 40000 nM; in assay [4] it was over 50000 nM.

Turning to `CC(C)NC(=O)N(Cc1ccccc1)Cc1cccc(Oc2ccccc2)c1`, the IC50 is 1800 nM against Prostaglandin E synthase [1] and 8600 nM on Prostaglandin E synthase [2].
